The text below walks through data of patent US20200325505A1, “FILAMENTOUS FUNGI CAPABLE OF PRODUCING VERY LONG CHAIN FATTY ACIDS” (UT-Battelle, LLC, priority 2019, published 2020).

Like-named read-outs stand apart in the source and are kept apart here.

The data set concerns Mortierella elongata AG77. Kind of data set: Carbon source utilisation in Biolog 96-well plates, formazan formation after tetrazolium addition. The class given is cell-based. As to conditions: for Metabolized: Metabolized = more formazan formation than a control containing no carbon source, observed visually at 2 h, 24 h, 148 h; for Carbon sources that Mortierella elongata AG77 can metabolize: summary of Table 3. Here is the method:
Two 300 mL volumes of growth medium comprising 1 g/L KH2PO4, 1 g/L MgSO4 7H2O, 0.1 g/L CaCl2, 0.02 g/L FeNaEDTA, 0.1 g/L NaCl, and either 1 g/L NH4NO3 or 20 g/L sucrose were prepared. Acidity was adjusted to 5.5 using NaOH and volumes of growth medium were autoclaved 30 min at 121° C. to sterilize. Aliquots of 200 μL of carbon-free medium or nitrogen-free medium were pipetted into each well of a set of 96-well plates previously prepared with lyophilized putative carbon or nitrogen sources (Biolog Inc., Hayward, Calif.). Inocula were prepared by perforating a culture of Mortierella elongata AG77 grown on 20 g/L potato dextrose agar with a 3 mm diameter cork borer and separating the surface mycelial mat from the solid growth medium using tweezers. Each well was inoculated with one inoculum. Cultures were incubated at 21° C. for 24 hours to allow metabolic changes to stabilize, and then 100 μL of 3 g/L tetrazolium chloride in water was added to each well. Formazan formation was observed visually at 2 h, 24 h, and 148 h.
Conclusions were based on rate and intensity of formazan formation using the 3-4,5-dimethylthiazol-2-yl)-2,5-diphenyltetrazolium bromide (MTT) assay. “Metabolized” indicates more formazan formation than a control containing no carbon source, and “Toxic” indicates less formazan formation than a control containing no carbon source. “Metabolized” and “Toxic” assignments are mutually exclusive. In this example, a compound may be “Metabolized” or “Toxic,” but not both.

[1] abbreviates: compound as carbon source, Toxic = less formazan formation than a control containing no carbon source.

On to `OC[C@H]1O[C@H](OC[C@H]2OC(O)(CO)[C@@H](O)[C@@H]2O)[C@H](O)[C@@H](O)[C@@H]1O` (stereo partly shown) [Palatinose], for which the “Carbon sources that Mortierella elongata AG77 can metabolize” value is given as “can metabolize”. Besides, under “compound as carbon source”, the Metabolized result is given as “yes”. Also, the Toxic result under setting [1] is reported as “no”.

Take `CCC(=O)O` [Propionic Acid]: the Toxic entry is given as “no”. Besides, the Metabolized result (compound as carbon source) is on record as “no”. For `CC(=O)C(=O)O` [Pyruvic Acid], the Metabolized result (compound as carbon source) was “no”. The Toxic result under setting [1] was “no”. For the compound `O=C(O)[C@]1(O)C[C@@H](O)[C@@H](O)[C@H](O)C1` [Quinic Acid], the Toxic result is “no”. For the same compound, under “compound as carbon source”, the Metabolized entry is “no”. As to `OCc1ccccc1O[C@@H]1O[C@H](CO)[C@@H](O)[C@H](O)[C@H]1O` [Salicin], the Toxic entry is listed as “no” and the “Carbon sources that Mortierella elongata AG77 can metabolize” value is given as “can metabolize”. Also, the Metabolized entry (compound as carbon source) is reported as “yes”.

`O=C(O)CCCCCCCCC(=O)O` [Sebacic Acid]: the Toxic entry is “no”. Moreover, the Metabolized entry (compound as carbon source) was “no”.

Consider `CCC(C)N` (stereo not shown) [Sec-Butylamine], for which the Metabolized result (compound as carbon source) is “no”. For the same compound, the Toxic result under setting [1] is listed as “no”. Take `OC[C@@]12OC[C@@H](O1)[C@@H](O)[C@@H](O)[C@@H]2O` [Sedoheptulosan]: the Metabolized result (compound as carbon source) is “no”. In addition, the Toxic entry under setting [1] is “no”. Regarding `C/C=C/C=C/C(=O)O` [Sorbic Acid], the Toxic result is “no”. The Metabolized entry (compound as carbon source) is recorded as “no”.

Regarding `OC[C@H]1O[C@H](OC[C@H]2O[C@H](OC[C@H]3O[C@H](O[C@]4(CO)O[C@H](CO)[C@@H](O)[C@@H]4O)[C@H](O)[C@@H](O)[C@@H]3O)[C@H](O)[C@@H](O)[C@H]2O)[C@H](O)[C@@H](O)[C@H]1O` [Stachyose], the Metabolized entry (compound as carbon source) is “no”. Also, the Toxic result under setting [1] is on record as “no”. Take `NC(=O)CCC(=O)O` [Succinamic Acid]: the Metabolized result (compound as carbon source) was “no”. Moreover, under setting [1], the Toxic entry is listed as “no”. Regarding `O=C(O)CCC(=O)O` [Succinic Acid], the Toxic result is reported as “no”. For the setting “compound as carbon source”, the Metabolized entry is “no”. For the compound `OC[C@H]1O[C@@](CO)(O[C@H]2O[C@H](CO)[C@@H](O)[C@H](O)[C@H]2O)[C@@H](O)[C@@H]1O` [Sucrose], the Toxic result was “no”. Also, for the setting “compound as carbon source”, the Metabolized entry is “no”. Turning to `O=C(O)CC(CC(=O)O)C(=O)O` [Tricarballylic Acid], the Toxic entry is “no” and the “Carbon sources that Mortierella elongata AG77 can metabolize” value is on record as “can metabolize”. The Metabolized entry (compound as carbon source) is recorded as “yes”. On to `O=C(CO)[C@@H](O[C@H]1O[C@H](CO)[C@@H](O)[C@H](O)[C@H]1O)[C@H](O)[C@H](O)CO` [Turanose], for which the Metabolized result (compound as carbon source) was “no”. Under setting [1], the Toxic result is recorded as “no”. Take `OC[C@@H](O)[C@H](O)[C@@H](O)CO` [Xylitol]: the Toxic entry was “no”. The Metabolized result (compound as carbon source) is listed as “no”. As for `CO[C@H]1O[C@H](CO)[C@@H](O)[C@H](O)[C@H]1O` [a-Methyl-D-Glucoside], the “Carbon sources that Mortierella elongata AG77 can metabolize” value is recorded as “can metabolize”. For the same compound, the Metabolized entry (compound as carbon source) is “yes”. Moreover, the Toxic result under setting [1] is on record as “no”. As to `OC[C@@H](O)[C@@H](O)CO` [i-Erythritol], the Metabolized result (compound as carbon source) is “no”. Besides, the Toxic entry under setting [1] was “no”. As to `O=C(O)Cc1cccc(O)c1` [m-Hydroxy Phenyl Acetic Acid], the Metabolized result (compound as carbon source) is “no”. Further, the Toxic entry under setting [1] is on record as “no”.

Take `O[C@H]1[C@H](O)[C@@H](O)[C@H](O)[C@@H](O)[C@H]1O` [m-Inositol]: the “Carbon sources that Mortierella elongata AG77 can metabolize” value is given as “can metabolize”. Also, where the note is “compound as carbon source”, the Metabolized result was “yes”. Besides, under setting [1], the Toxic entry was “no”.

On to `O=C(O)C(O)C(O)C(=O)O` (stereo not shown) [m-Tartaric Acid], for which the “Carbon sources that Mortierella elongata AG77 can metabolize” value is recorded as “can metabolize”. Further, the Metabolized entry (compound as carbon source) is reported as “yes”.

In the case of `O=C(O)Cc1ccc(O)cc1` [p-Hydroxy Phenyl Acetic Acid], the Metabolized entry (compound as carbon source) is on record as “no”. Further, the Toxic result under setting [1] was “no”. Regarding `OC[C@H]1O[C@@H]2O[C@H]3[C@H](O)[C@@H](O)[C@@H](O[C@H]4[C@H](O)[C@@H](O)[C@@H](O[C@H]5[C@H](O)[C@@H](O)[C@@H](O[C@H]6[C@H](O)[C@@H](O)[C@@H](O[C@H]7[C@H](O)[C@@H](O)[C@@H](O[C@H]1[C@H](O)[C@H]2O)O[C@@H]7CO)O[C@@H]6CO)O[C@@H]5CO)O[C@@H]4CO)O[C@@H]3CO` [α-Cyclodextrin], the Metabolized result (compound as carbon source) was “no”. Further, the Toxic result under setting [1] is “no”.

In the case of `OC[C@H]1O[C@H](O)[C@H](O)[C@@H](O)[C@@H]1O` [α-D-Glucose], the Toxic result is “no”. In addition, the Metabolized result (compound as carbon source) is “no”. In the case of `OC[C@H]1O[C@@H](O[C@H]2[C@H](O)[C@@H](O)[C@@H](O)O[C@@H]2CO)[C@H](O)[C@@H](O)[C@H]1O` [α-D-Lactose], the Metabolized result (compound as carbon source) is on record as “no”. Regarding `CCC(O)C(=O)O` (stereo not drawn) [α-Hydroxy Butyric Acid], the Metabolized result (compound as carbon source) was “no”. For the same compound, the Toxic result under setting [1] was “no”. `O=C1CCC(C(=O)O)O1` (stereo not drawn) [α-Hydroxy Glutaric Acid-γ-Lactone]: for the setting “compound as carbon source”, the Metabolized entry is given as “no”. For the same compound, the Toxic entry under setting [1] is “no”. As to `CCC(=O)C(=O)O` [α-Keto-Butyric Acid], the Metabolized entry (compound as carbon source) is recorded as “no”. The Toxic result under setting [1] is on record as “no”. Regarding `O=C(O)CCC(=O)C(=O)O` [α-Keto-Glutaric Acid], the Toxic result under setting [1] is reported as “no”.

With `CCCC(=O)C(=O)O` [α-Keto-Valeric Acid], the Metabolized result (compound as carbon source) was “no”. Further, the Toxic result under setting [1] is reported as “no”. As for `COC1OC(CO)C(O)C(O)C1O` [α-Methyl-D-Galactoside], the “Carbon sources that Mortierella elongata AG77 can metabolize” value is “can metabolize”. Also, for the setting “compound as carbon source”, the Metabolized result was “yes”. Moreover, the Toxic result under setting [1] is recorded as “no”. As to `COC1OC(CO)C(O)C(O)C1O` [α-Methyl-D-Mannoside], the Metabolized result (compound as carbon source) is given as “no”. Further, under setting [1], the Toxic entry is given as “no”. On to `OC[C@H]1O[C@@H]2O[C@H]3[C@H](O)[C@@H](O)[C@@H](O[C@H]4[C@H](O)[C@@H](O)[C@@H](O[C@H]5[C@H](O)[C@@H](O)[C@@H](O[C@H]6[C@H](O)[C@@H](O)[C@@H](O[C@H]7[C@H](O)[C@@H](O)[C@@H](O[C@H]8[C@H](O)[C@@H](O)[C@@H](O[C@H]1[C@H](O)[C@H]2O)O[C@@H]8CO)O[C@@H]7CO)O[C@@H]6CO)O[C@@H]5CO)O[C@@H]4CO)O[C@@H]3CO` [β-Cyclodextrin], for which the Metabolized result (compound as carbon source) is “no”. For the same compound, under setting [1], the Toxic entry is reported as “no”. For the compound `OC[C@H]1O[C@@H](O)[C@H](O)[C@H](O)[C@@H]1O` [β-D-Allose], the Toxic entry was “no”. Moreover, the Metabolized entry (compound as carbon source) is “no”. `CC(O)CC(=O)O` (stereo not drawn) [β-Hydroxy Butyric Acid]: the Toxic entry is recorded as “no”. Besides, the Metabolized entry (compound as carbon source) is “no”. Regarding `CO[C@@H]1O[C@H](CO)[C@@H](O)[C@H](O)[C@H]1O` [β-Methyl-D-Galactoside], the “Carbon sources that Mortierella elongata AG77 can metabolize” value is given as “can metabolize”. Moreover, the Metabolized result (compound as carbon source) is “yes”. The Toxic entry under setting [1] is listed as “no”. With `CO[C@@H]1O[C@H](CO)[C@@H](O)[C@H](O)[C@H]1O` [β-Methyl-D-Glucoside], the Metabolized result (compound as carbon source) was “no”. Further, the Toxic entry under setting [1] is recorded as “no”. Consider `CO[C@@H]1O[C@H](C(=O)O)[C@@H](O)[C@H](O)[C@H]1O` [β-Methyl-D-Glucuronic Acid], for which the Metabolized entry (compound as carbon source) was “no”. For the same compound, the Toxic result under setting [1] was “no”.

As to `COC1OCC(O)C(O)C1O` [β-Methyl-D-Xyloside], the Metabolized result (compound as carbon source) is “no”. In addition, the Toxic result under setting [1] is “no”. In the case of `OC[C@H]1O[C@@H]2O[C@H]3[C@H](O)[C@@H](O)[C@@H](O[C@H]4[C@H](O)[C@@H](O)[C@@H](O[C@H]5[C@H](O)[C@@H](O)[C@@H](O[C@H]6[C@H](O)[C@@H](O)[C@@H](O[C@H]7[C@H](O)[C@@H](O)[C@@H](O[C@H]8[C@H](O)[C@@H](O)[C@@H](O[C@H]9[C@H](O)[C@@H](O)[C@@H](O[C@H]1[C@H](O)[C@H]2O)O[C@@H]9CO)O[C@@H]8CO)O[C@@H]7CO)O[C@@H]6CO)O[C@@H]5CO)O[C@@H]4CO)O[C@@H]3CO` [γ-Cyclodextrin], where the note is “compound as carbon source”, the Metabolized entry is given as “no”. For the same compound, the Toxic result under setting [1] is on record as “no”. Take `O=C(O)CCCO` [γ-Hydroxy Butyric Acid]: the Metabolized entry (compound as carbon source) is recorded as “no”. Further, under setting [1], the Toxic entry was “no”.

As for Chondroitin Sulfate C, the Toxic result was “no”. Consider Dextrin, for which the Toxic entry is “no”.

Consider Gelatin, for which the Toxic result is “no”.

For Gentiobiose, the Metabolized entry (compound as carbon source) is “no”. Consider Glycogen, for which the Toxic result is on record as “no”. Same read-out and setting: in the case of Laminarin it was “no”. Consider Maltotriose, for which the “Carbon sources that Mortierella elongata AG77 can metabolize” value was “can metabolize”. Also, under “compound as carbon source”, the Metabolized result was “yes”. In addition, the Toxic entry under setting [1] is “no”. On to Mannan, for which the Toxic result is “no”.

Regarding Pectin, the Toxic result is recorded as “no”. Regarding Tween 20, the “Carbon sources that Mortierella elongata AG77 can metabolize” value is given as “can metabolize”. Under “compound as carbon source”, the Metabolized entry is “yes”. Further, the Toxic entry under setting [1] is given as “no”. Take Tween 40: the Metabolized entry (compound as carbon source) was “no”. Besides, the Toxic entry under setting [1] was “no”.
